Test [1] has as its system P. acnes. The test is described as follows: MIC/MBC against P. acnes by microdilution method. Format: cell-based. The following applies: for MIC: Cutibacterium acnes; for MBC: TriAza batches and their soaps. An excerpt: TriAza was designed as a pro-drug of azelaic acid, a known antibacterial agent, for the treatment of skin disorders associated with pathogenic propagation of bacteria. For example, the development of Acne vulgaris is tightly associated with extensive accumulation of P. acnes in the sebaceous gland, a milieu of the disease. To determine the antibacterial activity of TriAza against P. acnes, we tested the minimal bactericidal concentration (MBC) of TriAza. The effect of TriAza was compared to the MBC of azelaic acid and benzoyl peroxide (BPO), two main competitors used in the treatment of acne.
To compare the antimicrobial activities of various batches of TriAza we determined MIC of number of batches that were prepared with non-principal modifications. Selected batches were labeled as TriAza −3, TriAza −6, TriAza −7 and TriAza −19 and supplied to the growth medium of P. acnes. A, minimal inhibitory concentration of the batches was monitored and compared to each other. […] For further analysis, batch TriAza −19 was chosen as a batch containing the minimal amount of pelargonic acid.
Since TriAza is designed for marketing as a soap, we decided to define an antibacterial activity of its soap. […] It should be stressed that despite the decreased activity of TriAza soap it is still higher than that of azelaic acid (Table 1 and 2).
Example 12: Microbiome balance effect: Selection of methods for QC-quality control-Functional Potency. Testing minimal inhibitory concentration (MIC) to P. acnes was executed by microdilution method. TriAza based biocontrol, microbial preservation. P. acnes after double passage on Chocolate plates (Novamed) were grown bacteria in anaerobic conditions at 37° C. for 1-2 days. The bacteria were Gram stained and the proper morphology of the bacteria was assured. Then, bacteria were resuspended in Thioglycolate medium (HyLabs) at concentration of 0.02 O.D.600. Meanwhile, ELISA plates containing at the first raw 200 μl of undiluted tested material were prepared. The rest wells were filled with 100 μl of Thioglycolate medium and 11 serial […] by transferring 100 μl of undiluted material was performed. Once the ELISA plate was ready, 100 μl of prepared bacterial culture was added. Bacteria alone and medium w/o bacteria were used as standard controls. The plates were incubated in anaerobic conditions at 37° C. for 2 days. Minimal inhibitory concentration was determined visually and spectrophotometrically, while minimal bactericidal concentration was determined after plating of the bacteria on solid medium (Chocolate plates). On the plates bacteria were incubated in anaerobic conditions at 37° C. for 2 days and the number of appearing colonies were counted manually. Specification for positive functional potency for batch acceptance for the TriAza batches tested are selected in range of antimicrobial activity-MIC between 0,25-1 mM.
P. acnes after double passage on Chocolate plates (Novamed) were grown in anaerobic conditions at 37° C. for 1-2 days. The bacteria were Gram stained and the proper morphology of the bacteria was assured. Then, bacteria were resuspend in Thioglycolate medium
(HyLabs) at concentration of 0.02 O.D.600. Meanwhile, ELISA plates containing at the first raw undiluted tested material were prepared. The rest wells were filled with 100 μl of Thioglycolate medium and 11 serial ½ dilutions by transferring 100 ul of undiluted material was performed. Once the ELISA plate was ready, 100 ul of prepared bacterial culture was added. Bacteria alone and medium w/o bacteria were used as standard controls. The plates were incubated in anaerobic conditions at 37° C. for 2 days. Minimal inhibitory concentration was determined visually and spectrophotometrically, while minimal bactericidal concentration was determined after plating of the bacteria on solid medium (Chocolate plates). […]
Background: Broth dilution looks for growth in wells or tubes with falling amounts of substance.

The subject of test [2] is S. aureus. In words: S. aureus spiked contamination screen of natural preservatives in chocolate spread. The arrangement: unit not given here. Format: cell-based. An excerpt:
In addition, even MCT, and derivatives are screened as useful natural preservatives of the composition, GML-glycerol monolaurate is selected as an adjunctive multifunctional natural preservative to MOCL based composition.

The subject of test [3] is Staphylococcus aureus (S. aureus). The test is described as follows: MIC/MBC against S. aureus. Format: cell-based. From the text: (§1) For this purpose, we selected a few major skin pathogens and tested their sensitivity to TriAza. We chose Staphylococcus aureus (S. aureus) and Candida albicans (C. albicans), representing bacterial and fungal genera, respectively. Both organisms' express lipase. The bacteria and fungi were exposed to various concentrations of TriAza −19 and its sodium salt, and both the MICs and MBCs of the agents were statistically determined. […] The slight difference in MICs of TriAza against the tested organisms can stem from the difference in their lipase activity.

Test [4] deals with Candida albicans (C. albicans). The test is described as follows: MIC/MBC against C. albicans. The test is classed as cell-based.
Description: as §1

Test [5] addresses T1, lipase from P. cepacia (Burkholderia cepacia, UniProt P22088).
T1 construct: purchased
The test is described as follows: Bacterial lipase hydrolysis of TriAza, azelaic acid production by TLC. Format: biochemical. The following applies: increasing enzyme amounts, 37° C. On the procedure:
To determine the affinity of a bacterial lipase to the active ingredient according to the embodiments of the invention, the ability of the lipase to utilize TriAza as a substrate was tested. For this purpose, the commercially available lipase from P. cepacian was used. Increasing amounts of the enzyme were mixed with a fixed concentration of the substrate, and incubated for a few hours at 37° C. The enzymatic activity was monitored by TLC, by registering the production of azelaic acid.
(§2) Pure pro-drug activity of designed molecules implies their high specificity towards the target enzyme. TriAza represents the glycerol ester of a specific fatty acid that might be recognized by a mammalian esterase or other triglyceride-utilizing lipase. To establish specificity of bacterial lipase to TriAza, the lipase activity from P. cepacia to that of mammalian esterase and phospholipase A2 were compared. […] The extents of enzyme activities were registered according to the level of generation of azelaic acid.

Test [6] has as its system mammalian esterase. The test is described as follows: Specificity: hydrolysis of TriAza by esterase. The test is classed as biochemical. The following applies: equally active enzyme amounts, fixed TriAza concentration.
Description: as §2

The subject of test [7] is phospholipase A2. In words: Specificity: hydrolysis of TriAza by phospholipase A2. The test is classed as biochemical. To be noted: equally active enzyme amounts, fixed TriAza concentration.
Description: as §2

In test [8] the test system is P. acnes-associated lipase. In words: P. acnes-associated lipase activity in live culture, release of azelaic acid (TLC). The following applies: day 1 and day 5. Format: cell-based. How it is done:
The activity of C. acnes-associated and P. acnes-associated lipase was tested in the presence of triolein (a trigger of lipase activity). Bacteria was grown for 4 days in liquid medium. P. acnes after double passage on Chocolate plates (Novamed) were grown bacteria in anaerobic conditions at 37° C. for 1-2 days. The bacteria were Gram stained, and the proper morphology of the bacteria was assured. Then, 1 O.D. 600 bacteria were resuspended in 1 ml of Thioglycolate medium (HyLabs) containing 50 μl triolein and grown in anaerobic conditions at 37° C. for 4 days. Following this incubation, 100 μl of emulsified substrate was added to the culture that was further maintained at 37° C. for overnight. Afterwards, the supernatant was separated from the bacteria by 1 min centrifugation at 10000 rpm and subjected to lipid extraction using clorophorm: methanol (2:1). The lipids after nitrogen evaporation and resuspension in clorophorm: methanol (2:1) were separated on silica TLC plates in a development solution of clorophorm: methanol: water (65:25:4), and visualized with BromCresol Green (Sigma).

Test [9] can be described thus: Subjective evaluation of skin aged appearance in volunteers. The test is classed as in vivo, human. The following applies: scale −3 to 3; three volunteers; after month of use. How it is done: Method of subjective qualitative evaluation of skin whitening and smoothening at the test site and improvement in fine lines is evaluated subjectively by the investigator and/or by the subjects in accordance with the following scoring pattern:−3=marked deterioration;−2=moderate, visibly uneven deterioration;−1=slight deterioration; 0=no perceptible change or improvement; 1=slight change or improvement; 2=moderate change or improvement (whitening; perceptible and visible change, with less than 50% lightening of skin color); 3=marked or improvement remarkable change or improvement (whitening; very visible change with even and uniform skin whitening covering more than 80% of the contact area). Three study volunteers used TriAza for reduction of skin “aged appearance”-all three after month of use reported 2-3 scale of appearance improvement.

Where [10] appears, read: TriAza value is batch #5, MIC of L-PABS equals its MBC, read-out: MIC.

Converted amounts (≈) assume the structure as drawn. Like-named read-outs stand apart in the source and are kept apart here.

T1 sequence (P22088 45-364): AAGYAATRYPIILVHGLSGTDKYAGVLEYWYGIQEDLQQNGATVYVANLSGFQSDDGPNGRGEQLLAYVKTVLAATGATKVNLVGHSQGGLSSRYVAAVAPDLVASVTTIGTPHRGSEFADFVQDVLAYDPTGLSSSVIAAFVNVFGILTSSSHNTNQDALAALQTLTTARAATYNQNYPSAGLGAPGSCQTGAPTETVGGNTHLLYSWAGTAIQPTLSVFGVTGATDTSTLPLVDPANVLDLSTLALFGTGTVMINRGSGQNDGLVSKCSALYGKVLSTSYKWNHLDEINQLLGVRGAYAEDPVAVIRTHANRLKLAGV

Turning to `O=C(O)CCCCCCCC(=O)O` [Azelaic acid, reference compound], in test [1] (setting [10]), the MIC turned out to be 3750 µg/mL.
`CCCCCCCCC(=O)OCC(COC(=O)CCCCCCCC)OC(=O)CCCCCCCC` [tripelargonin] had an MIC in test [2] of 23.
For `O=C(O)CCCCCCCC(=O)OCC(COC(=O)CCCCCCCC(=O)O)OC(=O)CCCCCCCC(=O)O` [TriAza-19], the MBC amounted to 1000 µg/mL (≈ 1.66 mM) in test [1], 10000 µg/mL (≈ 16.6 mM) in [3] and 24000 µg/mL (≈ 39.8 mM) in test [4]. Also, the values for the MIC in test [3] and in test [4] were 5000 µg/mL (≈ 8.3 mM) and 20000 µg/mL (≈ 33.2 mM), respectively.
As for `O=C(O)CCCCCCCC(=O)OCC(COC(=O)CCCCCCCC(=O)O)OC(=O)CCCCCCCC(=O)O` [TriAza, Glycerol triazelate], the MIC in test [1] (setting [10]) stood at 1950 µg/mL; in test [1] (batch VA4-1, with surfactant or emulsifier, read-out: MIC bacteriostatic activity, concentration sufficient to stop growth), 1000 µM. In addition, the “activity of TriAza relative to Azelaic acid” value in [1] (stronger than Azelaic acid) was 2 fold. Moreover, in [5], the “utilization as substrate, accumulation of azelaic acid” value is “could be utilized as a substrate for bacterial lipase activity”. For the same compound, the “generation of azelaic acid by esterase” value in test [6] is given as “neither esterase nor phospholipase A2 could produce azelaic acid”. Besides, the “generation of azelaic acid by phospholipase A2” value in test [7] is given as “neither esterase nor phospholipase A2 could produce azelaic acid”. Besides, in [8], the “time-dependent release of azelaic acid” value is recorded as “maximum lipase hydrolysis on day 5”. In addition, in [9], the appearance improvement score is listed as 2-3.
For `O=C(O)CCCCCCCC(=O)OCC(COC(=O)CCCCCCCC(=O)O)OC(=O)CCCCCCCC(=O)O` [TriAza-7], the MBC in test [1] turned out to be 2000 µg/mL (≈ 3.32 mM).
Still for that read-out and setting: in the case of `O=C(O)CCCCCCCC(=O)OCC(COC(=O)CCCCCCCC(=O)O)OC(=O)CCCCCCCC(=O)O` [TriAza-3] it was 1000 µg/mL (≈ 1.66 mM).
Same read-out and setting: in the case of `O=C(O)CCCCCCCC(=O)OCC(COC(=O)CCCCCCCC(=O)O)OC(=O)CCCCCCCC(=O)O` [TriAza-6] it was 2800 µg/mL (≈ 4.65 mM).
With `O=C(OOC(=O)c1ccccc1)c1ccccc1` [BPO, benzoyl peroxide, reference compound], the MIC in test [1] (setting [10]) was 500 µg/mL.
